Data from EP4467141A1, “PYRAZOLO-QUINOLINES AS SELECTIVE INHIBITORS OF GENOTOXIC STRESS-INDUCED IKK/NF- KB PATHWAYS FOR CANCER THERAPY” (Max-Delbrück-Centrum für Molekulare Medizin in der …, priority 2023, dated 2024).

Assays:
Test in all cases: Kinase panel study
Type in all cases: biochemical
Settings in all cases: read-out: Percentage of inhibition; for inhibition at 1 µM: 1000nM; for inhibition at 10 µM: 10000nM
SYK = biological target: T1, SYK (Homo sapiens, UniProt P43405)
T1 construct: purchased Thermo Fisher Scientific
Method in brief: (§1)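 Readout is percentage kinase inhibition. Testing used 1 µM or 10 µM compound in externally run ZLyte/Adapta in vitro assays, and IC50 values were derived within the same panel.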

EGFR (ErbB1) C797S = biological target: T2, EGFR (ErbB1) C797S (Homo sapiens, UniProt P00533, C797S)
T2 construct: purchased Thermo Fisher Scientific
T2 sequence (P00533 25-1210 C797S): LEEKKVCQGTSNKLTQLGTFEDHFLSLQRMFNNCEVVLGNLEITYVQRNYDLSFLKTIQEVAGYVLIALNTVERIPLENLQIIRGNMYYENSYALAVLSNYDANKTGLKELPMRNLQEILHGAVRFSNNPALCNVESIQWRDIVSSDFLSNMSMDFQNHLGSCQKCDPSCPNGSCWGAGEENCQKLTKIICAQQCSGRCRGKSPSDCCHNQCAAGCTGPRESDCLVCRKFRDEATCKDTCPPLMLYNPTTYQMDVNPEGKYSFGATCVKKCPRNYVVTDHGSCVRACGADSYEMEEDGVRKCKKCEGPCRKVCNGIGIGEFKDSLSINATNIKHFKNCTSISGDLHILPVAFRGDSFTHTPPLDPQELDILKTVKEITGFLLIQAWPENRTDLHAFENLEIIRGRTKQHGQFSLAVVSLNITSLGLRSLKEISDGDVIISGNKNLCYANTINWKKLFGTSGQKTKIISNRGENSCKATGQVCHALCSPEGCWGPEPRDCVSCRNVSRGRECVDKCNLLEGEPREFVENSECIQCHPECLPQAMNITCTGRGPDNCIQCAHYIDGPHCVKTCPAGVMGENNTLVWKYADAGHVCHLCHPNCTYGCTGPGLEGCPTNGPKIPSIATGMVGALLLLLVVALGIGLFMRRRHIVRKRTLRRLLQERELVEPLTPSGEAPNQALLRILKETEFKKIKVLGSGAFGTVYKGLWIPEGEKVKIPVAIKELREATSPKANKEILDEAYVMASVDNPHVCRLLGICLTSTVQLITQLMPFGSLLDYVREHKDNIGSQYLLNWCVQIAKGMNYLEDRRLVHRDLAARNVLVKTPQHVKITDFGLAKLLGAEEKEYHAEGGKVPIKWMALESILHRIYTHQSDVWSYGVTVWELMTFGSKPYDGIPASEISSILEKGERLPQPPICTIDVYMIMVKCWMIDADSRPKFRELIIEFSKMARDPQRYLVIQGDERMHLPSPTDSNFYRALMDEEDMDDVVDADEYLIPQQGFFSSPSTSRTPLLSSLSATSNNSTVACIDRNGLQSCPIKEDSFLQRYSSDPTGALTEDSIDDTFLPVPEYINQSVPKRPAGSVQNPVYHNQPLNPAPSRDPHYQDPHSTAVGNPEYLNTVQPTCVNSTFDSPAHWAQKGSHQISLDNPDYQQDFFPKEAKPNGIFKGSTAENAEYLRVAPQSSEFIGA
Method in brief: as §1

MAPKAPK2 = biological target: T3, MAPKAPK2 (Homo sapiens, UniProt P49137)
T3 construct: purchased Thermo Fisher Scientific
T3 sequence (P49137 whole entry): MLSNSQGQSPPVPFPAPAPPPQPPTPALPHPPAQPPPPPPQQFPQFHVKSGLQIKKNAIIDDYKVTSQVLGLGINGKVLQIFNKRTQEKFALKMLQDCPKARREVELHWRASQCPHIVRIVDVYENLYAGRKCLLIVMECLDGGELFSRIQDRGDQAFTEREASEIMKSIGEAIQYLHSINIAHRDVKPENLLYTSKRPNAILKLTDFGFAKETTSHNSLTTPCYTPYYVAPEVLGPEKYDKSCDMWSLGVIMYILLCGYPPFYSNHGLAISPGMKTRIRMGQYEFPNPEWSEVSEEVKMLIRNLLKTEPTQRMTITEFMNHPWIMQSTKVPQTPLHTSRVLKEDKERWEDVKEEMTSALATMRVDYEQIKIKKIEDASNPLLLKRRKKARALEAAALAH
Method in brief: as §1

SGKL (SGK3) = biological target: T4, SGKL (SGK3) (Homo sapiens, UniProt Q96BR1)
T4 construct: purchased Thermo Fisher Scientific
T4 sequence (Q96BR1 1-496): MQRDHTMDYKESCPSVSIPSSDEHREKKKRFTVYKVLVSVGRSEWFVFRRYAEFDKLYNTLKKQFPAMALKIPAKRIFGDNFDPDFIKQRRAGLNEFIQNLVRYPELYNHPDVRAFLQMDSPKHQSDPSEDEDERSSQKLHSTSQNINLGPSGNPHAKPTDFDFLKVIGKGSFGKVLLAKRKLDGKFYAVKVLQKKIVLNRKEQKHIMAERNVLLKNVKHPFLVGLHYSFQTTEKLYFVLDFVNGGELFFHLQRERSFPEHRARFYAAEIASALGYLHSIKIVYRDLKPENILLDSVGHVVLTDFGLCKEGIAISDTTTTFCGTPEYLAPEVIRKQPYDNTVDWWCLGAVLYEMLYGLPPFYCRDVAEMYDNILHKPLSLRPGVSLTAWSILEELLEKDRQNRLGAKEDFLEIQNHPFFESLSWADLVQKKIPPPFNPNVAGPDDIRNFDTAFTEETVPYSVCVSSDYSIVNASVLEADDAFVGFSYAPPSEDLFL
Method in brief: as §1

LYN A = biological target: T5, LYN A (Homo sapiens, UniProt P07948)
T5 construct: purchased Thermo Fisher Scientific
T5 sequence (P07948 whole entry): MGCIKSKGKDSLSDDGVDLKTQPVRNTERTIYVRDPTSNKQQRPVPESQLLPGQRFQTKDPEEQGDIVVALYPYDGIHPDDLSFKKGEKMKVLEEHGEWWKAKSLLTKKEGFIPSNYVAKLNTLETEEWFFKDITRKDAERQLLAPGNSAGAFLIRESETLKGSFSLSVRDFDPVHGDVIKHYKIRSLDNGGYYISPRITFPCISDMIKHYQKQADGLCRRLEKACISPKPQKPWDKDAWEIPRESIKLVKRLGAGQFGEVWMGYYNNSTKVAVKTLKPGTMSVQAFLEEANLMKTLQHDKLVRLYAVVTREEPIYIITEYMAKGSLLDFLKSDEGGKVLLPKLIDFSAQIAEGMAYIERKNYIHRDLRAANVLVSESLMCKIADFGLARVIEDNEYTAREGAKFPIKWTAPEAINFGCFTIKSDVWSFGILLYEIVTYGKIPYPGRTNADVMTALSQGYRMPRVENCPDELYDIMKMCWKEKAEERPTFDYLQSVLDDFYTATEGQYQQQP
Method in brief: as §1

GRK7 = biological target: T6, GRK7 (Homo sapiens, UniProt Q8WTQ7)
T6 construct: purchased Thermo Fisher Scientific
T6 sequence (Q8WTQ7 1-553): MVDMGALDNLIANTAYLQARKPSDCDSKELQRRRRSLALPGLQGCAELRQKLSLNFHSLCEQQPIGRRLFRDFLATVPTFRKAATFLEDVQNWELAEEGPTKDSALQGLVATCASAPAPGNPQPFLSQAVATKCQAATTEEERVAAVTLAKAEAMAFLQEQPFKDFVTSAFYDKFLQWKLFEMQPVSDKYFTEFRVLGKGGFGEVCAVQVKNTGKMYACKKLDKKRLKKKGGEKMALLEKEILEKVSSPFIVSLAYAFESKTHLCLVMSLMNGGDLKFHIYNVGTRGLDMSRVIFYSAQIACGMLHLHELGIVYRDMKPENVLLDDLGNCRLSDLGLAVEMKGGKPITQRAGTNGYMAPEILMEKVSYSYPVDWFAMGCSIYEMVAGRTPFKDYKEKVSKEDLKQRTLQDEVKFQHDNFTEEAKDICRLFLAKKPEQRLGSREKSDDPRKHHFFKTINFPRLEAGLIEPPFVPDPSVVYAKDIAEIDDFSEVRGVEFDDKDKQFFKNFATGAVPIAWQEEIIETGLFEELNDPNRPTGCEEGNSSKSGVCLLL
Method in brief: as §1

CSNK1A1L = biological target: T7, CSNK1A1L (Homo sapiens, UniProt Q8N752)
T7 construct: purchased Thermo Fisher Scientific
T7 sequence (Q8N752 1-337): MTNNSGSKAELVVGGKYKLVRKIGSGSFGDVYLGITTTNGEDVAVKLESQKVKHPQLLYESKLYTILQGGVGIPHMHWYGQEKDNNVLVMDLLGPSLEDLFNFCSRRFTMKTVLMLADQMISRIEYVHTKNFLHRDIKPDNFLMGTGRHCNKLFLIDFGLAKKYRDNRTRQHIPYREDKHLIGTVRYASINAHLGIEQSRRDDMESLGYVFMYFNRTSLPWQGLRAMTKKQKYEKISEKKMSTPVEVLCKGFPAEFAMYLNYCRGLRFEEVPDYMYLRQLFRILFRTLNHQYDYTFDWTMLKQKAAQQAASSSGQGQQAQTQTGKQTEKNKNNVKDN
Method in brief: as §1

CSNK1E (CK1 epsilon) = biological target: T8, CSNK1E (CK1 epsilon) (Homo sapiens, UniProt P49674)
T8 construct: purchased Thermo Fisher Scientific
T8 sequence (P49674 whole entry): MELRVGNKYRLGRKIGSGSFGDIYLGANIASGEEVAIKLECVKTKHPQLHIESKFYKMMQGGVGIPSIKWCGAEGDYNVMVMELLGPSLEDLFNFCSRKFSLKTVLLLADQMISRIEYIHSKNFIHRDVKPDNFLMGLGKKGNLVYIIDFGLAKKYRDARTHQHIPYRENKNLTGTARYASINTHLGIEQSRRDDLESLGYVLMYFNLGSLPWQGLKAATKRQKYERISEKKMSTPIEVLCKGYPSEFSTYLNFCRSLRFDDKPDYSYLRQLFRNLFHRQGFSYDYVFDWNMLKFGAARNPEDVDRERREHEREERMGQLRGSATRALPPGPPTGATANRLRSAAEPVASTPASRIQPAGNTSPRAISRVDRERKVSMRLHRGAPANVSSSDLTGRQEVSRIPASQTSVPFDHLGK
Method in brief: as §1

[1] = biological target: T9, PIK3CA E542K/PIK3R1 (p11 0 alpha E542K/p85 alpha) (Homo sapiens, UniProt P42336, E542K)
T9 construct: purchased Thermo Fisher Scientific
T9 sequence (P42336 whole entry E542K): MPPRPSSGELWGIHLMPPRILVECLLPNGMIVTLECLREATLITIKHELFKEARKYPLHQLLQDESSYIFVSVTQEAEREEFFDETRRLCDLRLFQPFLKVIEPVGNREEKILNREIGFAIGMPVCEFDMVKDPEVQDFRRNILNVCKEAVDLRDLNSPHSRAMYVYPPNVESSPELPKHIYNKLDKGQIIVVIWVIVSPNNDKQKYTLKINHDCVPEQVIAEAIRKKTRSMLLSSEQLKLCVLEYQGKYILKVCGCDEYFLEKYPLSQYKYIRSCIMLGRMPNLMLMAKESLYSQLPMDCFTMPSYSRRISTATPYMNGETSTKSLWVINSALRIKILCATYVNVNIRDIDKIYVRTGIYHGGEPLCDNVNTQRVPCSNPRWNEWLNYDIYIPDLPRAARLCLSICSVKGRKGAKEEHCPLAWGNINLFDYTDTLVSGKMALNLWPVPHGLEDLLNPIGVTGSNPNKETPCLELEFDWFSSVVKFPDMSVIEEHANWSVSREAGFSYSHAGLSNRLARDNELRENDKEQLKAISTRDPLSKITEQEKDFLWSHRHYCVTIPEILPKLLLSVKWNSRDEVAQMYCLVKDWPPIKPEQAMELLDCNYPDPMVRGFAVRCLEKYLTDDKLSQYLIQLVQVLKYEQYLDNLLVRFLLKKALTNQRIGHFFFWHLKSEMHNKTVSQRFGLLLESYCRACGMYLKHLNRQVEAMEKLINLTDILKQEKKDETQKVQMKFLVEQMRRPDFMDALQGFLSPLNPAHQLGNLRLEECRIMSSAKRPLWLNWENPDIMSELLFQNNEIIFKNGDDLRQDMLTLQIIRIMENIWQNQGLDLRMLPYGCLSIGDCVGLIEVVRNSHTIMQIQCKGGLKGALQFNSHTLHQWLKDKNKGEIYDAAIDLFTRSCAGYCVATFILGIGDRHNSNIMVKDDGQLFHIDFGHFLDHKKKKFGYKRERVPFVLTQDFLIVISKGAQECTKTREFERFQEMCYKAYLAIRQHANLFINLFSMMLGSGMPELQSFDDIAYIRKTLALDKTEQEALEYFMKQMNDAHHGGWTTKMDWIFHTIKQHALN
T9 sequence (P27986 whole entry partner): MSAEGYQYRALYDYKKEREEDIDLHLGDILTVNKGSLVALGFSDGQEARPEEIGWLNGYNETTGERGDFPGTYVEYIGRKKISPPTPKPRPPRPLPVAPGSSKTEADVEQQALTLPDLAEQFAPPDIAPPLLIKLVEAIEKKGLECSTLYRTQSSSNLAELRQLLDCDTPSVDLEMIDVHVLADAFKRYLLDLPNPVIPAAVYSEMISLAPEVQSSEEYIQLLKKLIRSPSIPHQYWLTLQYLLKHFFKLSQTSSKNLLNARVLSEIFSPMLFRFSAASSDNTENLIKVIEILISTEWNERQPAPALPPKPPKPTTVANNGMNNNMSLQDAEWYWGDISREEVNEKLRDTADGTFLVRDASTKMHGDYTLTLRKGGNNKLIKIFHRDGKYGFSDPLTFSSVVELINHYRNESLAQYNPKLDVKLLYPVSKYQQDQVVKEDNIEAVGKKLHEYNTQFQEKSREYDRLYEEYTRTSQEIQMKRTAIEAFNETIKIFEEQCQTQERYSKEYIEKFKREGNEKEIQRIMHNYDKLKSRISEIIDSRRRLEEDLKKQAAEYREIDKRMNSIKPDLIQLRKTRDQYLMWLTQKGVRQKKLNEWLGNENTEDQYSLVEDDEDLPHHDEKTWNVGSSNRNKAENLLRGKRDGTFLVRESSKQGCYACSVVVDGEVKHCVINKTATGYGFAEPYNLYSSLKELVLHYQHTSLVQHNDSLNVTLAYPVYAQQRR
Method in brief: as §1

Row | Structure (SMILES) | inhibition at 1 µM (SYK) [%] | inhibition at 10 µM (SYK) [%] | inhibition at 1 µM (EGFR (ErbB1) C797S) [%] | inhibition at 10 µM (EGFR (ErbB1) C797S) [%] | inhibition at 1 µM (MAPKAPK2) [%] | inhibition at 10 µM (MAPKAPK2) [%] | inhibition at 1 µM (SGKL (SGK3)) [%] | inhibition at 10 µM (SGKL (SGK3)) [%] | inhibition at 1 µM (LYN A) [%] | inhibition at 10 µM (LYN A) [%] | inhibition at 1 µM (GRK7) [%] | inhibition at 10 µM (GRK7) [%] | inhibition at 1 µM (CSNK1A1L) [%] | inhibition at 10 µM (CSNK1A1L) [%] | inhibition at 1 µM (CSNK1E (CK1 epsilon)) [%] | inhibition at 10 µM (CSNK1E (CK1 epsilon)) [%] | inhibition at 1 µM [1] [%] | inhibition at 10 µM [1] [%]
1 | COc1ccc2cc3c(N)nn(C(=O)c4cccc(N(C)C)c4)c3nc2c1 [MW05, (3-Amino-7-methoxypyrazolo[3,4-b]quinolin-1-yl)-[3-(dimethylamino)phenyl]methanone] | 5 | 7 | 1 | -14 | 4 | -6 | 8 | 6 | 1 | -6 | -2 | 5 | 1 | 1 | 2 | 0 | 22 | 68
2 | COc1ccc2c(c1OC)c(=O)n1c3ccc(O)cc3c3ccnc2c31 [MW01, 5-Hydroxy-10,11-dimethoxy-9H-benzo[c]indolo[3,2,1-ij][1,5]naphthyridin-9-one] | 16 | 37 | 4 | 11 | 3 | 3 | 12 | 10 | 5 | 18 | -2 | 0 | 1 | 11 | 6 | 32 | 94 | 96
